Patent US20080138280A1, “Composition and Methods For Inhibiting Cell Survival” (The Cleveland Clinic Foundation, priority 2003, published 2008)

Tested on: IκB kinase (IKK)
Test: IκB kinase (IKK) activity assay with GST-IκBα-(1-54) and [γ32P]ATP
Type: cell-based, human
Conditions: A375 pretreated with NO-Cbl
Description: FIG. 8 illustrates the assessment of IκB kinase (IKK) activity using recombinant GST-IκBα-(1-54) and [γ^32P]ATP as substrates. The phosphorylated GST fusion protein was detected by autoradiography. IKK activity was determined in A375 cells pretreated with NO-Cbl followed by Apo2L/TRAIL or TNF-α stimulation for 30 minutes and 15 minutes, respectively. […] Anti-β-actin antibody served as the irrelevant antibody with no phosphorylation of GST-IκBα-(1-54) observed.

nitrosylcobalamin [NO-Cbl] was tested. Which “IKK activity stimulated with Apo2L/TRAIL” value (Apo2L/TRAIL 30 minutes) did it give?
The value was “inhibited”.

And the “IKK activity stimulated with TNF-α” value (TNF-α 15 minutes)?
The value was “inhibited”.
